11 compounds from patent US20110190492A1, “DIAGNOSTIC PROBE FOR CONFORMATION DISEASE” (TOHOKU UNIVERSITY, priority 2005, published 2011) can be followed below.

Read-outs that look alike come from different tables or passages of the source.

In one data set the target is T1, amyloid β protein (Homo sapiens, UniProt P05067).
T1 construct: from tissue; host or cells: paraffin-embedded human brain sections (temporal lobe, hippocampus) of Alzheimer disease patients
The data set is described as follows: Staining test on a brain section of an Alzheimer disease patient (amyloid β protein). The data set is classed as binding, human (Alzheimer disease patient). The following applies: 100 μM compound in 50% ethanol, 10 minutes, fluorescence microscopy. From the text: (§1) (1) Brain specimens at the temporal lobe and the hippocampus of patients to which a definitive diagnosis of Alzheimer disease had been given, and those of normal senile persons were used. The specimens were given by our coworker, Fukushimura Hospital, Longevity Medicine Institute, and we were given their consent of use of the specimens for our study purpose by the bereaved of the patients (Fukushimura Hospital Ethical Review Board Approval No. 20).
(§2) (2) The paraffin-embedded brain tissue was cut into slices having a thickness of 6 μm or 8 μm, and extended and dried on a slide. The paraffin brain section was processed for paraffin removal in xylene twice for 10 minutes, 100% ethanol twice for 5 minutes, 90% ethanol for 5 minutes and running water for 10 minutes in that order.
(§3) (3) For pretreatment prior to the staining treatment with a compound of the invention, the sections were processed for autofluorescence removal with lipofuscin. First, the paraffin-removed sections were dipped in 0.25% KMnO4 solution for 20 minutes. These were washed with PBS, twice for 2 minutes, then dipped in 0.1% K2S2O5/oxalic acid solution for about 5 seconds, and then further washed with PBS, three times for 2 minutes.
(§4) (4) About 150 μl of a 100 μM solution of a compound of the invention dissolved in 50% ethanol was dropwise applied to the section and reacted for 10 minutes. After dipped five times in tap water, the section was entrapped with Fluor Save Reagent (Calbiochem), and analyzed through microscopy with a fluorescence microscope (Nikon, Eclipse 80i). The images were taken with a digital camera (Nikon Dxm 1200F or Photometrics' Cool SNAP ES).

Another data set relates to neurofibrillary tangle. The data set is described as follows: Staining test on a brain section of an Alzheimer disease patient (neurofibrillary tangle). It counts as binding, human (Alzheimer disease patient). The note with it: 100 μM compound in 50% ethanol, 10 minutes, fluorescence microscopy.
Description: as §1, §2, §3, §4

The nature of data set [1]: Brain permeability of [^18F]-labeled compound in mice. It counts as in vivo, male ICR mice. The note with it: 2 minutes after intravenous administration, radioactivity. Here is the method:
The partitioning HPLC fraction containing [^18F]THK525, [^18F]THK702, [^18F]THK727 or [^18F]THK763, obtained through labeling production, was diluted with distilled water (about 20 mL), then loaded in Sep-Pak tC18 cartridge (by waters). The cartridge was washed with distilled water (5 to 10 mL), and then the labeled compound was eluted with EtOH (3 to 5 mL). A suitable amount of 5% Polysorbate 80/ethanol solution was added to the EtOH eluate, and the solvent was evaporated away with heating at 80° C. with a rotary evaporator. Thus obtained, a mixture of the labeled compound and Polysorbate 80 was dissolved in physiological saline, thereby preparing a labeled compound-containing physiological saline. Thus prepared, the radiochemical purity of the chemical solution was 95% or more.
[^18F]THK525, [^18F]THK702, [^18F]THK727 or […] to male ICR mice (6 to 7 weeks-age) via their tail vein. From the radioactivity deposition in the brain after 2 and 30 minutes, the brain permeability of the labeled compound was assessed. The radiochemical purity of the labeled compound-containing physiological saline used was at least 95%, and the relative radioactivity thereof was from 18.5 to 148 GBq/μmol; and from 1.11 to 2.22 MBq of the labeled compound was administered to one mouse. Regarding the assessment of the radioactivity deposition, the proportion of the radioactivity per the unit weight of the sample tissue to the overall radioactivity given to the test animal (% injected dose/g of tissue; % ID/g) was taken as the index. For measuring the radioactivity, used was a gamma counter (1480 WIZARD, by Perkin Elmer). The experiment protocol was as follows: A labeled compound was administered to mice via their tail vein. After 2 and 30 minutes, the cervical spine of the mouse was dislocated under ether anesthesia. Immediately, the blood was collected from its heart, and the whole brain (including cerebellum and brainstem) was taken out. The radioactivity and the tissue weight of each sample were measured, and from the data, % ID/g was computed.

For a further data set, the target named is T2, Amyloid β protein 1-40 (Homo sapiens, UniProt P05067).
T2 construct: Amyloid β protein 1-40 (bought from Peptide Laboratory); purchased Peptide Laboratory
T2 sequence (P05067 672-711): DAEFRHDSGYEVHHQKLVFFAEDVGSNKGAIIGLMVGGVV
The data set is described as follows: Fluorescence Congo red method. It counts as binding. The note with it: 1 h, compound 10 μM, amyloid β protein 5 μM. How it is done: (1) Amyloid β protein 1-40 (bought from Peptide Laboratory) was dissolved in a phosphate buffer (pH 7.4) and left at 37° C. for 4 days.
(2) 50 μl of Congo red dissolved in the buffer was applied to a 96-well microplate (final concentration, 0.1, 0.3, 1 μM).
(3) 100 μl of amyloid β protein was added to it (final concentration 5 μM), and left as such for 30 minutes.
(4) 100 μl of a test compound dissolved in the buffer was added to it (final concentration, 10 and left as such for 60 minutes.
(5) Using a fluorescence microplate reader (Spectra Max 190 by Molecular Device), the sample was analyzed at the optimum exciting wavelength and the test wavelength that had been previously determined.
(6) The fluorescence intensity in the presence of the test compound, amyloid β protein and Congo red is represented by A; that in the presence of the test compound and Congo red is by B; that in the presence of the test compound and amyloid β protein is by C; and that in the presence of only the test compound is by D. The β structure recognition of the test compound is computed according to the following formula:
β structure recognition (%) of test compound={(A−B)/(C−D)}×100.

A short description of data set [2]: Acute toxicity test, intravenous administration to mice. It counts as in vivo. The following applies: mice observed for 7 days. How it is done:
The compounds of the invention were tested for their acute toxicity through intravenous administration thereof to mice. Four Crj:CD1 male mice formed one test group, and some test groups of those mice were used (the mean body weight of the mice of each group was from 31 to 32 g). A test compound was dissolved in a mixture of 1 N HCl, polyethylene glycol-400 and distilled water, or dissolved in DMSO, and then diluted with distilled water. This was administered to each mouse via its tail vein.

The test system of data set [3] is histidine-requiring Salmonella typhimurium TA100 and TA98 strains. The data set can be described thus: Mutagenicity test (reverse mutation test). It counts as cell-based. How it is done: In view of their use, it is desirable that the compounds of the invention have no mutagenicity or have little mutagenicity to a level causing no problem. For investigating the gene mutagenesis of the compounds of the invention, herein carried out was a reverse mutation test with histidine-requiring Salmonella typhimurium TA100 and TA98 strains. Two tests were carried out. One is a test for dose determination test; and the other is for mutagenicity.
The test methods and the mutagenicity of the compounds of the invention are mentioned below. In the dose determination test, six doses of 0.160, 0.800, 4.00, 20.0, 100 and 500 μg/plate (common ratio 5) were tried.
As a result of the dose determination test, when the mutagenicity of the test compound was admitted, then the actual test for mutagenicity was carried out, using the dose capable of giving an accurate dose-reaction curve. When no mutagenicity of the test compound was admitted in the dose determination test and when the growth inhibition of the test cells was admitted therein, then the dose to present the growth inhibition was taken as the maximum dose; and when the growth inhibition was not admitted, then a dose of 5000 μg/plate was taken as the maximum dose. With that, the actual test for mutagenicity was carried out on the level of 6 doses (common ratio 2).
First, a test compound was dissolved or suspended in DMSO, then diluted in order to prepare test compound liquids having a varying concentration.
100 μl of a test compound liquid or a negative control (DMSO) solution was put into a sterilized test tube. Then, for the case in the absence of a metabolic activation system (−S9mix), 500 μl of 0.1 mol/liter sodium-phosphate buffer (pH 7.4) was added to it; and for the case in the presence of a metabolic activation system (+S9mix), 500 μl of S9mix was added to it.
Next, 100 μl of the test strain suspension that had been cultivated with shaking at 37° C. for 8 hours was added to it, and preincubated in a shaking thermostat at 37° C. for 20 minutes. After shaken, 2 ml of top agar was added to it, and the contents were mixed.
Next, the mixture was poured onto a minimal glucose agar plate medium (plate) and spread uniformly thereon, then the top agar was solidified, and the plate was transferred into a thermostat and incubated at 37° C. for 48 hours.
Then, the number of the colonies grown through reverse mutation was counted.
For counting it, […]. After area correction and miss-counting correction, the number of the colonies was computed. When the colony analyzer could not be used owing to the deposition of the test compound or the cell growth inhibition, then the number of the colonies was counted with the naked eye.
In case where the number of the colonies through reverse mutation increased two times or more that of the negative control and where the dose dependency or the reproducibility of the increase was admitted, then the tested sample was decided as positive. When the sample was decided as positive, then the relative activity that indicates the relative comparative value of the intensity of the mutagenicity of the test compound was obtained according to the following formula:
Relative Activity={(number of colonies per plate having the concentration)−(number of colonies per negative control plate)}/the value of concentration (mg/plate).

Setting [4] is: irrespective of the absence or presence of S9mix.

T1 sequence (P05067 672-713 limits assumed): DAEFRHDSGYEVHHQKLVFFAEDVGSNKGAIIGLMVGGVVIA

Regarding `CN1C=CC(=C/C=C2\C=Nc3ccccc32)C=C1` [THK-185, 3-[2-(1-methyl-1H-pyridin-4-ylidene)-ethylidene]-3H-indole], the “binding to amyloid β protein in the brain section of an Alzheimer disease patient” value (from here on “binding to amyloid β protein”) on amyloid β protein is recorded as “bound to the amyloid β protein”. Further, the “binding to neurofibrillary tangle in the brain section of an Alzheimer disease patient” value (shortened to “binding to neurofibrillary tangle”) in the data set on neurofibrillary tangle is “bound to the amyloid β protein and the neurofibrillary tangle”.

In the case of `OCC(CF)COc1ccc2nc(/C=C/c3cnc(N4CCOCC4)s3)oc2c1` (stereo not drawn) [[^18F]THK-727], in data set [1], the “Brain Permeability of [^18F]-labeled Compound: Brain” value is recorded as 4.1 % ID/g or ml and the “Brain Permeability of [^18F]-labeled Compound: Plasma” value (shortened to “Brain Permeability … Plasma”) was 2.9 % ID/g or ml.

On to `OCC(CF)COc1ccc2nc(/C=C/c3cnc(N4CCOCC4)s3)oc2c1` (stereo not drawn) [THK-727, 2-fluoromethyl-3-[2-[2-(2-morpholin--yl-thiazol-5-yl)-vinyl]-benzoxazol-6-yloxy]-propan-1-ol], for which the activity at 10 µM on Amyloid β protein 1-40 (Congo red 0.1 μM, read-out: Binding Percentage of Compound in the presence of 0.1 μM CR) was 73.6%; at Amyloid β protein 1-40 (Congo red 0.3 μM, read-out: Binding Percentage of Compound in the presence of 0.3 μM CR) it was 35%; at Amyloid β protein 1-40 (Congo red 1 μM, read-out: Binding Percentage of Compound in the presence of 1 μM CR) it was 3.1%. For the same compound, at amyloid β protein, the “binding to amyloid β protein” value is recorded as “The white space arrow indicates amyloid β protein”. In addition, the “binding to neurofibrillary tangle” value in the data set with neurofibrillary tangle is “the white space arrow head indicates neurofibrillary tangle”. In addition, the “Maximum Permissible Dose” value in data set [2] was “≧10 mg/kg”. Further, the “relative activity” value in data set [3] (setting [4]) is reported as “minus”.

Regarding `CNc1ncc(/C=C/c2nc3ccc(OC(CO)CF)cc3o2)s1` (stereo not drawn) [THK-761, (E)-6-[(1-fluoromethyl-2-hydroxy)ethoxy]-2-[2-[2-methylaminothiazol-5-yl]ethenyl]-benzoxazole], the “binding to amyloid β protein” value on amyloid β protein was “The white space arrow indicates amyloid β protein”. Also, in data set [2], the “Maximum Permissible Dose” value is given as “≧10 mg/kg”. Also, the “relative activity” value in data set [3] (in the presence of S9mix) is “weak”.

Regarding `CN1C=CC(=CC=C2C=CC(=O)C=C2)C=C1` [THK-317, 4-[2-(1-methyl-1H-pyridin-4-ylidene)-ethylidene]-cyclohexa-2,5-dienone], on amyloid β protein, the “binding to amyloid β protein” value was “bound to the amyloid β protein”. In the data set on neurofibrillary tangle, the “binding to neurofibrillary tangle” value is “bound to the amyloid β protein and the neurofibrillary tangle”.

`OCC(CF)Oc1ccc2nc(/C=C/c3cnc(N4CCCC4)s3)oc2c1` (stereo not drawn) [THK-752, (E)-6-[(1-fluoromethyl-2-hydroxy)ethoxy]-2-[2-[2-(pyrrolidin-1-yl)-thiazol-5-yl]ethenyl]benzoxazole]: the “binding to amyloid β protein” value at amyloid β protein is reported as “The white space arrow indicates amyloid β protein”. Moreover, the “Maximum Permissible Dose” value in data set [2] is given as “≧10 mg/kg”. Moreover, the “relative activity” value in data set [3] (setting [4]) is recorded as “minus”.

Turning to `FCCOc1ccc2nc(/C=C/c3cnc(N4CCOCC4)s3)oc2c1` [[^18F]THK-525], in data set [1], the “Brain Permeability of [^18F]-labeled Compound: Brain” value was 4.7 % ID/g or ml and the “Brain Permeability … Plasma” value was 2.8 % ID/g or ml.

As for `CN(C)c1ncc(/C=C/c2nc3ccc(OC(CO)CF)cc3o2)s1` (stereo not drawn) [[^18F]THK-763], in data set [1], the “Brain Permeability of [^18F]-labeled Compound: Brain” value is listed as 4.6 % ID/g or ml and the “Brain Permeability … Plasma” value is 3.7 % ID/g or ml.

As for `OCC(CF)Oc1ccc2nc(/C=C/c3cnc(N4CCOCC4)s3)oc2c1` (stereo not drawn) [[^18F]THK-702], in data set [1], the “Brain Permeability of [^18F]-labeled Compound: Brain” value is given as 4.2 % ID/g or ml and the “Brain Permeability … Plasma” value is on record as 2.3 % ID/g or ml.

Turning to `CN(C)c1ccc(-c2nnc(-c3sc4ccccc4c3Cl)o2)cc1` [THK-258, [4-[5-(3-chloro-benzo[b]thiophen-2-yl)-[1,3,4]oxadiazol-2-yl]-phenyl]-dimethylamine], at amyloid β protein, the “binding to amyloid β protein” value is listed as “bound to the amyloid β protein”. In addition, the “binding to neurofibrillary tangle” value with neurofibrillary tangle is “bound to the amyloid β protein and the neurofibrillary tangle”.

Consider `CN(C)c1ncc(/C=C/c2nc3ccc(OC(CO)CF)cc3o2)s1` (stereo not drawn) [THK-763, (E)-6-[(1-fluoromethyl-2-hydroxy)ethoxy]-2-[2-[2-dimethylamino-thiazol-5-yl]ethenyl]benzoxazole], for which the “binding to amyloid β protein” value on amyloid β protein is given as “The white space arrow indicates amyloid β protein”. Besides, the “Maximum Permissible Dose” value in data set [2] is “≧10 mg/kg”. Besides, the “relative activity” value in data set [3] (in the presence of S9mix) is given as “weak”.
